These results are taken from the supplement of paper PMC10307832.

What all share (test): relative viability (nuclei count vs DMSO), 5 days (fraction); higher = more cells survive
Compound in experiment [1]: CN1CCN(CC1)C2=CC(=C(C=C2)NC3=NC(=C(S3)C(=O)C4=C(C=CC=C4Cl)Cl)N)OC [XMD14-99] + CC1(C)CCC(c2ccc(Cl)cc2)=C(CN2CCN(c3ccc(C(=O)NS(=O)(=O)c4ccc(N[C@H](CCN5CCOCC5)CSc5ccccc5)c(S(=O)(=O)C(F)(F)F)c4)cc3)CC2)C1 [Navitoclax] (partner 0.5 µM)
The procedure, abridged: (§1)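 Relative viability is defined as nuclei in treated wells over nuclei in vehicle wells. Duplicate plates were run and medians reported. Lung cancer cell lines in 1536-well plates were dosed by pin tool one day after seeding, with one drug or with a fixed anchor-drug dose plus five library-drug doses (not always all listed) in √10 steps, and nuclei were counted after 5 days.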

Compound in experiment [2]: CN1CCN(CC1)C2=CC(=C(C=C2)NC3=NC(=C(S3)C(=O)C4=C(C=CC=C4Cl)Cl)N)OC [XMD14-99] + Cc1nc(Nc2ncc(C(=O)Nc3c(C)cccc3Cl)s2)cc(N2CCN(CCO)CC2)n1 [Dasatinib] (partner 0.075 µM)
The procedure, abridged:
as §1

Compound in experiment [3]: N[C@@H]1CCCN(c2c(/C=C3\SC(=O)NC3=O)cccc2-c2ccccc2)C1 [AZD1208] + Cc1cc(Nc2cc(N3CCN(C)CC3)nc(Sc3ccc(NC(=O)C4CC4)cc3)n2)n[nH]1 [Tozasertib] (partner 0.1 µM)
The procedure, abridged:
as §1

Compound in experiment [4]: N[C@@H]1CCCN(c2c(/C=C3\SC(=O)NC3=O)cccc2-c2ccccc2)C1 [AZD1208] + Nc1nc2[nH]cc(CCc3ccc(C(=O)N[C@@H](CCC(=O)O)C(=O)O)cc3)c2c(=O)[nH]1 [Pemetrexed] (partner 0.2 µM)
The procedure, abridged:
as §1

Take ChaGo-K-1: the relative viability in experiment [1] (first compound 0.08 µM) amounted to 1.05; in experiment [1] (first compound 0.8 µM), 1.06; in experiment [1] (first compound 2.53 µM) it was 0.908; in experiment [1] (first compound 8 µM), 0.745; in experiment [2] (first compound 0.08 µM), 0.564; in experiment [2] (first compound 0.8 µM) it was 0.6. Besides, the relative viability in experiment [2] (first compound 2.53 µM) stood at 0.51; in experiment [2] (first compound 8 µM) it was 0.483; in experiment [3] (first compound 0.08 µM) it was 0.216; in experiment [3] (first compound 0.253 µM) it was 0.202; in experiment [3] (first compound 0.8 µM), 0.193; in experiment [3] (first compound 2.53 µM) it was 0.218. Besides, the relative viability in experiment [3] (first compound 8 µM) is 0.183; in experiment [4] (first compound 0.08 µM) it was 0.269; in experiment [4] (first compound 0.253 µM), 0.261; in experiment [4] (first compound 0.8 µM), 0.293; in experiment [4] (first compound 2.53 µM), 0.261; in experiment [4] (first compound 8 µM) it was 0.25.
For EBC-1, the relative viability in experiment [1] (first compound 0.08 µM) was determined as 0.37; in experiment [1] (first compound 0.8 µM), 0.384; in experiment [1] (first compound 2.53 µM) it was 0.415; in experiment [1] (first compound 8 µM), 0.219.
As for EKVX, the relative viability in experiment [1] (first compound 0.08 µM) worked out at 0.96; in experiment [1] (first compound 0.8 µM) it was 0.982; in experiment [1] (first compound 2.53 µM), 0.841; in experiment [1] (first compound 8 µM), 0.66; in experiment [2] (first compound 0.08 µM), 0.497; in experiment [2] (first compound 0.8 µM), 0.561. The relative viability in experiment [2] (first compound 2.53 µM) turned out to be 0.5; in experiment [2] (first compound 8 µM), 0.373; in experiment [3] (first compound 0.08 µM), 0.444; in experiment [3] (first compound 0.253 µM), 0.462; in experiment [3] (first compound 0.8 µM), 0.376; in experiment [3] (first compound 2.53 µM), 0.388. For the same cell line, the relative viability in experiment [3] (first compound 8 µM) was 0.262; in experiment [4] (first compound 0.08 µM), 0.411; in experiment [4] (first compound 0.253 µM), 0.441; in experiment [4] (first compound 0.8 µM), 0.404; in experiment [4] (first compound 2.53 µM), 0.425; in experiment [4] (first compound 8 µM), 0.404.
As for EMC-BAC-2, the relative viability in experiment [1] (first compound 0.08 µM) amounted to 1.08; in experiment [1] (first compound 0.8 µM) it was 1.14; in experiment [1] (first compound 2.53 µM) it was 1.06; in experiment [1] (first compound 8 µM), 0.901; in experiment [2] (first compound 0.08 µM) it was 0.311; in experiment [2] (first compound 0.8 µM), 0.334. Further, the relative viability in experiment [2] (first compound 2.53 µM) came out at 0.334; in experiment [2] (first compound 8 µM), 0.286; in experiment [3] (first compound 0.08 µM), 0.28; in experiment [3] (first compound 0.253 µM), 0.298; in experiment [3] (first compound 0.8 µM), 0.28; in experiment [3] (first compound 2.53 µM), 0.25. For the same cell line, the relative viability was determined as 0.222 in experiment [3] (first compound 8 µM); 0.462 in experiment [4] (first compound 0.08 µM); 0.474 in experiment [4] (first compound 0.253 µM); 0.511 in experiment [4] (first compound 0.8 µM); 0.524 in experiment [4] (first compound 2.53 µM); 0.54 in experiment [4] (first compound 8 µM).
Regarding EPLC-272H, the relative viability was 1.14 in experiment [1] (first compound 0.08 µM); 1.1 in experiment [1] (first compound 0.8 µM); 1.29 in experiment [1] (first compound 2.53 µM); 1.11 in experiment [1] (first compound 8 µM); 0.323 in experiment [2] (first compound 0.08 µM); 0.325 in experiment [2] (first compound 0.8 µM). Moreover, the relative viability in experiment [2] (first compound 2.53 µM) amounted to 0.402; in experiment [2] (first compound 8 µM) it was 0.392; in experiment [3] (first compound 0.08 µM), 0.231; in experiment [3] (first compound 0.253 µM), 0.351; in experiment [3] (first compound 0.8 µM) it was 0.263; in experiment [3] (first compound 2.53 µM), 0.149. The relative viability in experiment [3] (first compound 8 µM) was found to be 0.197; in experiment [4] (first compound 0.08 µM), 0.353; in experiment [4] (first compound 0.253 µM), 0.422; in experiment [4] (first compound 0.8 µM), 0.376; in experiment [4] (first compound 2.53 µM) it was 0.342; in experiment [4] (first compound 8 µM), 0.406.
For H3255, the relative viability in experiment [1] (first compound 0.08 µM) is 0.542; in experiment [1] (first compound 0.8 µM) it was 0.654; in experiment [1] (first compound 2.53 µM), 0.493; in experiment [1] (first compound 8 µM), 0.32; in experiment [2] (first compound 0.08 µM) it was 0.437; in experiment [2] (first compound 0.8 µM), 0.496. Moreover, the relative viability in experiment [2] (first compound 2.53 µM) came to 0.347; in experiment [2] (first compound 8 µM) it was 0.249; in experiment [3] (first compound 0.08 µM), 0.664; in experiment [3] (first compound 0.253 µM), 0.675; in experiment [3] (first compound 0.8 µM) it was 0.534; in experiment [3] (first compound 2.53 µM), 0.58. Besides, the relative viability in experiment [3] (first compound 8 µM) is 0.689; in experiment [4] (first compound 0.08 µM), 0.591; in experiment [4] (first compound 0.253 µM) it was 0.577; in experiment [4] (first compound 0.8 µM), 0.597; in experiment [4] (first compound 2.53 µM) it was 0.524; in experiment [4] (first compound 8 µM) it was 0.598.
In the case of HARA, the relative viability is 1.15 in experiment [1] (first compound 0.08 µM); 1.18 in experiment [1] (first compound 0.8 µM); 1.17 in experiment [1] (first compound 2.53 µM); 1.02 in experiment [1] (first compound 8 µM); 0.274 in experiment [2] (first compound 0.08 µM); 0.249 in experiment [2] (first compound 0.8 µM). In addition, the relative viability in experiment [2] (first compound 2.53 µM) is 0.273; in experiment [2] (first compound 8 µM), 0.189; in experiment [3] (first compound 0.08 µM), 0.11; in experiment [3] (first compound 0.253 µM), 0.0998; in experiment [3] (first compound 0.8 µM), 0.111; in experiment [3] (first compound 2.53 µM) it was 0.0918. In addition, the relative viability in experiment [3] (first compound 8 µM) was 0.0796; in experiment [4] (first compound 0.08 µM), 0.251; in experiment [4] (first compound 0.253 µM), 0.206; in experiment [4] (first compound 0.8 µM) it was 0.292; in experiment [4] (first compound 2.53 µM), 0.282; in experiment [4] (first compound 8 µM) it was 0.227.
For HCC-15, the relative viability in experiment [1] (first compound 0.08 µM) amounted to 0.663; in experiment [1] (first compound 0.8 µM), 0.617; in experiment [1] (first compound 2.53 µM), 0.609; in experiment [1] (first compound 8 µM), 0.494; in experiment [2] (first compound 0.08 µM), 0.601; in experiment [2] (first compound 0.8 µM), 0.65. Also, the relative viability in experiment [2] (first compound 2.53 µM) came to 0.548; in experiment [2] (first compound 8 µM) it was 0.431; in experiment [3] (first compound 0.08 µM), 0.362; in experiment [3] (first compound 0.253 µM) it was 0.306; in experiment [3] (first compound 0.8 µM), 0.241; in experiment [3] (first compound 2.53 µM), 0.186. The relative viability worked out at 0.184 in experiment [3] (first compound 8 µM); 0.215 in experiment [4] (first compound 0.08 µM); 0.214 in experiment [4] (first compound 0.253 µM); 0.225 in experiment [4] (first compound 0.8 µM); 0.237 in experiment [4] (first compound 2.53 µM); 0.213 in experiment [4] (first compound 8 µM).
